pIC50: −log10 of the molar value. Read-outs that look alike come from different tables or passages of the source. Blank lines part the entries; values can stand above or below the compound they belong to.
What was measured:
human PCFT = target: T1, human PCFT (Homo sapiens, UniProt Q96NT5); assay: PCFT transport competition, [3H]MTX uptake in R2/PCFT4 CHO cells; format: cell-based; details: for inhibition at 1 µM / inhibition at 10 µM: pH 5.5, read-out: Inhibition of [3H]MTX uptake; for Ki for PCFT [3H]MTX transport inhibition, fold higher than for PMX: pH 5.5, Dixon analysis
T1 sequence (Q96NT5 1-459): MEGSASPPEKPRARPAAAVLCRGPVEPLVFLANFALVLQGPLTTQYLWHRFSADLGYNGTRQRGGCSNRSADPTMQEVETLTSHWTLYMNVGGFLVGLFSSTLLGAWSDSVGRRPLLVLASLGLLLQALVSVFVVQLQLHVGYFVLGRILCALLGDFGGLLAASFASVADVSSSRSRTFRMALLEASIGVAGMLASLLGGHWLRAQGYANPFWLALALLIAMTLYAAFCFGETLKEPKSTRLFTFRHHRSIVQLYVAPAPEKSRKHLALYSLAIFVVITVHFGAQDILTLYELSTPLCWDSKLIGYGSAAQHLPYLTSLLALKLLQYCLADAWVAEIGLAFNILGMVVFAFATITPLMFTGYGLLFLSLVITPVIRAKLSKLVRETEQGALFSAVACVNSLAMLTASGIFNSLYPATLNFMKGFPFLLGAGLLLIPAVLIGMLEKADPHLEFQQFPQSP

[1] = test system: CHO subline engineered to express human RFC (PC43-10); assay: Proliferation assay, RFC-expressing PC43-10 CHO cells; details: PC43-10, 96 h, read-out: IC50 PC43-10 (RFC)
[2] = test system: KB human tumor cells (express RFC, FRα, and PCFT); format: cell-based
FRα (RT16 CHO cells) = FRα (RT16 CHO cells) (Homo sapiens, UniProt P15328); assay: FR binding assay, [3H]folic acid competition in RT16 cells; details: folic acid = 1
Sequence of FRα (RT16 CHO cells) (P15328 25-257): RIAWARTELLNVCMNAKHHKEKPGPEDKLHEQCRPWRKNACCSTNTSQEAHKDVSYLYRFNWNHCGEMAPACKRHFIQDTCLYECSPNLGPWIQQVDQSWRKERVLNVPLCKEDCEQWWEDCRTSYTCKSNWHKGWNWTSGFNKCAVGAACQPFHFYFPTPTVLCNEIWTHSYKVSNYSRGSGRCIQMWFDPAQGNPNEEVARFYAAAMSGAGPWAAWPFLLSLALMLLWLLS

FRβ (D4 CHO cells) = FRβ (D4 CHO cells) (Homo sapiens, UniProt P14207); assay: FR binding assay, [3H]folic acid competition in D4 cells; details: folic acid = 1
Sequence of FRβ (D4 CHO cells) (P14207 17-255): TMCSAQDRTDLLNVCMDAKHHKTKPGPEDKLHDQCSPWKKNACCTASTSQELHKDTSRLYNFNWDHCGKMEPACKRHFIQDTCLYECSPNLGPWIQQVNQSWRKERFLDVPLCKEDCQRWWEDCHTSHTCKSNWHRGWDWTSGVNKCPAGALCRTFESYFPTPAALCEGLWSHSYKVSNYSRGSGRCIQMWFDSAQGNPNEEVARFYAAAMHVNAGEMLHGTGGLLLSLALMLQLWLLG

human GARFTase = target: T2, human GARFTase (Homo sapiens, UniProt P22102); format: biochemical; details: from Ki values, Table 2
T2 sequence (P22102 810-1010 limits assumed): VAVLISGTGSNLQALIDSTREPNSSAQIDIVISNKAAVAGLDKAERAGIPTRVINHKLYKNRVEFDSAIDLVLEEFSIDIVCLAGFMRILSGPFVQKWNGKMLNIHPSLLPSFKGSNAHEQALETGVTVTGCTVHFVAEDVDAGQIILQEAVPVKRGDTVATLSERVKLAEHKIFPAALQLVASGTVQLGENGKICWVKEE

[3] = test system: IGROV1 ovarian tumor xenografts; assay: In vivo efficacy trial with IGROV1 xenografts in SCID mice; details: folate-deficient diet

inhibition at 1 µM (human PCFT): 30 to 60% | inhibition at 10 µM (human PCFT): 80 to 90%
SMILES: Nc1nc2[nH]c(CCCc3ccc(C(=O)N[C@@H](CCC(=O)O)C(=O)O)cc3)cc2c(=O)[nH]1 [Compound 1]
pIC50 [1]: 6.19

SMILES: Nc1nc2[nH]c(CCCc3ccc(C(=O)N[C@@H](CCC(=O)O)C(=O)O)s3)cc2c(=O)[nH]1 [Compound 3]
pIC50 ([2]; read-out: IC50 KB): 9.59 | pIC50 ([2]; read-out: IC50 KB (+FA)): 7.00 | pIC50 [1]: 7.00

SMILES: Nc1nc2[nH]c(CCNc3ccc(C(=O)N[C@@H](CCC(=O)O)C(=O)O)cc3)cc2c(=O)[nH]1 [Compound 4, (4-{[2-(2-Amino-4-oxo-4,7-dihydro-3H-pyrrolo[2,3-d]pyrimidin-6-yl)ethyl]amino}benzoyl)-L-glutamic acid]
Relative binding affinity, % of the affinity for folic acid, FRα (FRα (RT16 CHO cells)): 60–110% | Relative binding affinity, % of the affinity for folic acid, FRβ (FRβ (D4 CHO cells)): 60–110% | Improvement in GARFTase inhibitory potency over C (1) (human GARFTase): approximately 3 fold | T-C (tumor growth delay) ([3]; 384 mg/kg total dose): 9 days | log10 kill ([3]; 384 mg/kg total dose): 1.4 | Highest non-toxic total dose ([3]; Q3dx4 iv): 600 mg/kg | Body weight loss (nadir) ([3]; during treatment, reversible): 17.0–17.3%

SMILES: CC(=O)N(CCc1cc2c(=O)[nH]c(N)nc2[nH]1)c1ccc(C(=O)N[C@@H](CCC(=O)O)C(=O)O)cc1 [Compound 6, (4-{N-[2-(2-amino-4-oxo-4,7-dihydro-3H-pyrrolo[2,3-d]pyrimidin-6-yl)ethyl]acetamido}benzoyl)-L-glutamic acid]
Ki for PCFT [3H]MTX transport inhibition, fold higher than for PMX (human PCFT): ~ 18 fold

Relative binding affinity, % of the affinity for folic acid, FRα (FRα (RT16 CHO cells)): 60–110% | Relative binding affinity, % of the affinity for folic acid, FRβ (FRβ (D4 CHO cells)): 60–110% | Ki for PCFT [3H]MTX transport inhibition, fold higher than for PMX (human PCFT): ~ 7 fold | Improvement in GARFTase inhibitory potency over C (1) (human GARFTase): approximately 3 fold
SMILES: Nc1nc2[nH]c(CCOc3ccc(C(=O)N[C@@H](CCC(=O)O)C(=O)O)cc3)cc2c(=O)[nH]1 [Compound 8, {4-[2-(2-amino-4-oxo-4,7-dihydro-3H-pyrrolo[2,3-d]pyrimidin-6-yl)ethoxy]benzoyl}-L-glutamic acid]

Relative binding affinity, % of the affinity for folic acid, FRα (FRα (RT16 CHO cells)): 60–110% | Relative binding affinity, % of the affinity for folic acid, FRβ (FRβ (D4 CHO cells)): 60–110%
SMILES: Nc1nc2[nH]c(CCSc3ccc(C(=O)N[C@@H](CCC(=O)O)C(=O)O)cc3)cc2c(=O)[nH]1 [Compound 9, (4-{[2-(2-amino-4-oxo-4,7-dihydro-3H-pyrrolo[2,3-d]pyrimidin-6-yl)ethyl]thio}benzoyl)-L-glutamic acid]

inhibition at 1 µM (human PCFT): ≥ 90% | inhibition at 10 µM (human PCFT): ≥ 90%
SMILES: Nc1nc2[nH]cc(CCc3ccc(C(=O)N[C@@H](CCC(=O)O)C(=O)O)cc3)c2c(=O)[nH]1 [PMX, pemetrexed]

From PMC5018213 (Journal of medicinal chemistry, 2016)
